Experimental data taken from the NIST ThermoML archive (doi:10.1021/acs.jced.8b00176).
± gives the expanded uncertainty stated by the source.

Test: xn = mol fraction of the nth substance listed
Conditions: 100 kPa, Liquid; for viscosity: Falling or rolling sphere viscometry; for speed of sound: Frequency=3 MHz, Single path-length method; for mass density: Vibrating tube method

CCCCn1cc[n+](C)c1.O=S(=O)([O-])C(F)(F)F [1-butyl-3-methylimidazolium trifluoromethanesulfonate] + CN(C)C=O
Conditions	mass density, 298.15 K [kg/m3]	mass density, 303.15 K [kg/m3]	mass density, 308.15 K [kg/m3]	speed of sound, 298.15 K [m/s]	speed of sound, 303.15 K [m/s]	speed of sound, 308.15 K [m/s]	viscosity, 298.15 K [mPa·s]	viscosity, 303.15 K [mPa·s]	viscosity, 308.15 K [mPa·s]
x1 = 0.1087	1042.02 ± 2	1037.25 ± 2	1032.47 ± 2	1449.2 ± 2.3	1432.1 ± 2.3	1415.2 ± 2.3	1.8 ± 0.6	1.67 ± 0.6	1.55 ± 0.6
x1 = 0.203	1099.89 ± 2	1095.22 ± 2	1090.53 ± 2	1437.7 ± 2.3	1421.9 ± 2.3	1406 ± 2.3	3.67 ± 0.6	3.23 ± 0.6	2.93 ± 0.6
x1 = 0.2978	1142.86 ± 2.1	1138.3 ± 2.1	1133.72 ± 2.1	1425.7 ± 2.4	1410.9 ± 2.4	1395.9 ± 2.4	5.22 ± 0.6	4.67 ± 0.6	4.2 ± 0.6
x1 = 0.409	1181.65 ± 2.1	1177.22 ± 2.1	1172.78 ± 2.1	1415 ± 2.5	1401.2 ± 2.5	1387.2 ± 2.5	8.68 ± 0.61	7.62 ± 0.6	6.73 ± 0.6
x1 = 0.4969	1206.07 ± 2.1	1201.73 ± 2.1	1197.38 ± 2.1	1409.2 ± 2.5	1396 ± 2.5	1382.9 ± 2.5	13.24 ± 0.81	11.4 ± 0.81	9.92 ± 0.61
x1 = 0.603	1230.69 ± 2.2	1226.44 ± 2.2	1222.2 ± 2.2	1403 ± 2.6	1390.5 ± 2.6	1378.1 ± 2.6	20.91 ± 0.83	17.79 ± 0.82	15.23 ± 0.82
x1 = 0.699	1249.54 ± 2.2	1245.37 ± 2.2	1241.2 ± 2.2	1399.1 ± 2.6	1387 ± 2.6	1375 ± 2.6	32.59 ± 0.88	27.14 ± 0.86	22.89 ± 0.84
x1 = 0.809	1268.59 ± 2.3	1264.5 ± 2.3	1260.4 ± 2.3	1396.7 ± 2.7	1384.8 ± 2.7	1373.3 ± 2.7	52.15 ± 0.93	42.41 ± 0.94	35.16 ± 0.9
x1 = 0.8928	1281.63 ± 2.3	1277.59 ± 2.3	1273.54 ± 2.3	1395 ± 2.8	1383.5 ± 2.8	1372.1 ± 2.8	68.08 ± 1.2	54.9 ± 0.97	44.83 ± 0.96
x1 = 1	1297.46 ± 2.4	1293.46 ± 2.4	1289.47 ± 2.4	1393.2 ± 2.8	1382.8 ± 2.8	1371.7 ± 2.8	82.38 ± 1.7	66.69 ± 1.2	52.86 ± 0.96
